Each structure is given as a SMILES string.

The test system of assay [1] is erythrocyte concentrate. In words: Hemolysis of erythrocyte concentrate after 42 days of refrigerated storage. The class given is cell-based. As to conditions: FIG. 1. An excerpt: (§1) Referring now to FIGS. 1-2, test results of two different erythrocyte concentrates are illustrated. The first erythrocyte concentrate is identified by, number 2032 and the second erythrocyte concentrate is identified by number 2086. Each of the samples was divided into four different containers. […] Also, for each sample, two of the containers included a gas system of 99.9% by volume xenon gas. The graphs indicate which container included or were absent xenon gas and/or DEHP plasticiser. The testing protocol for the containers was as follows:
(§2) For Containers That Are Absent Xe Gas:
(§3) a. Place non-Xe units flat on a rotator for 3.5 hours.
(§4) b. Place non-Xe units in blood bank refrigerator at the same time as the Xe units.
(§5) For Containers That Include Xe Gas:
(§6) a. Place Xe units flat in a pretested hyperatmic chamber.
(§7) b. Evacuate the chamber with vacuum to remove oxygen from the Xe units.
(§8) c. Pressurize the chamber with Xe gas at 4 atm.
(§9) d. Vent the chamber of Xe gas.
(§10) e. Pressurize the chamber with Xe gas at 4 atm.
(§11) f Vent the chamber of Xe gas.
(§12) g. Pressurize the chamber with Xe gas at 4 atm.
(§13) h. Vent the chamber of Xe gas.
(§14) i. Pressurize the chamber with Xe gas at 4 atm.
(§15) j. Place the pressurized Xe unit on an agitator for 3.5 h.
k. Place the pressurized Xe unit in a blood bank refrigerator at the same time as the non-Xe units.
While the Xe units and non-Xe units are in the blood bank refrigerator, the Xe units were periodically checked over a 42 day period to ensure that the pressure in the Xe units exceeded 1 atm. After 42 days, all of the units were removed from the blood bank refrigerator. After the units were removed from the blood bank refrigerator, the following procedures where conducted on the units:
1. Immediately place the pressurized Xe units and non-Xe units on a platelet to and-fro horizontal agitator for 10 minutes.
2. Depressurize all of the units by opening a value on the container.
3. Place all units on a bench top and hold for 3 hours.
4. Following the 3 hour hold period, test the samples for percentage of hemolysis and the ATP content.

Assay [2] concerns erythrocyte concentrate. The conditions noted are these: presence of DEHP plasticizer in the storage container; cited from earlier work.
In assay [3] the test system is erythrocyte concentrate. Briefly: ATP content of erythrocyte concentrate after 42 days of refrigerated storage. The class given is cell-based. As to conditions: FIG. 2, samples 2032 and 2086, 99.9% by volume xenon gas, treated vs not treated.
From the text: as §1, §2, §3, §4, §5, §6, §7, §8, §9, §10, §11, §12, §13, §14, §15
k. Place the pressurized Xe unit in a blood bank refrigerator at the same time as the non-Xe units. […]

For `CCCCC(CC)COC(=O)c1ccccc1C(=O)OCC(CC)CCCC` (stereo not drawn) [DEHP plasticiser, his (2-ethylhexyl) phthalate], the hemolysis entry in the assay on erythrocyte concentrate [1] (42 days, DEHP plasticiser added to a container that included xenon gas) is given as “further reduction of hemolysis”. Moreover, in the assay with erythrocyte concentrate [1] (42 days, containers that include DEHP plasticiser vs containers without), the amounts of hemolysis entry is “Reduced amounts of hemolysis”. Further, in the assay with erythrocyte concentrate [2], the “number of erythrocytes that lysed during the storage of the erythrocyte concentrate” value is given as “reduces the number of erythrocytes that lysed”.
For `[Xe]` [xenon gas, Xenon], in the assay with erythrocyte concentrate [3], the “ATP content in the erythrocyte concentrate” value is “higher ATP content”. In the assay on erythrocyte concentrate [1] (42 days, xenon gas with no DEHP plasticiser vs container with DEHP plasticiser and no xenon gas), the amounts of hemolysis result is on record as “lower amounts of hemolysis”. Further, the percent of hemolysis result with erythrocyte concentrate [1] (samples 2032 and 2086, 99.9% by volume xenon gas at 4 atm, 42 days in blood bank refrigerator, treated vs not treated with xenon gas) is reported as “significantly less”.

These data come from patent US20140154666A1, “Erythrocyte Preservation Method” (Trustees of Dartmouth College, priority 2012, published 2014).
